# Measured values taken from patent US20100311751A1, “SOLID DISPERSIONS CONTAINING AN APOPTOSIS-PROMOTING AGENT” (ABBOTT LABORATORIES, priority 2009, published 2010).
# Experiment: solubility in water
# Format: physicochemical
# Conditions: pH 2
# Description: Examples of such active ingredients are, for example, Biopharmaceutics Classification System (BCS) Class IV drug substances that are characterized by low solubility and low permeability (see “Waiver of in vivo bioavailability and bioequivalence studies for immediate-release solid oral dosage forms based on a biopharmaceutics classification system”, U.S. Department of Health and Human Services, Food and Drug Administration, Center for Drug Evaluation and Research (CDER), August 2000). It will be recognized that aqueous solubility of many compounds is pH-dependent; in the case of such compounds the solubility of interest herein is at a physiologically relevant pH, for example a pH of about 1 to about 8.
smiles,measurement,value
CC1(C)CCC(c2ccc(Cl)cc2)=C(CN2CCN(c3ccc(C(=O)NS(=O)(=O)c4ccc(N[C@H](CCN5CCOCC5)CSc5ccccc5)c(S(=O)(=O)C(F)(F)F)c4)cc3)CC2)C1 [ABT-263],solubility in water,less than 4 μg/ml
